In ChEMBL document CHEMBL1240505, “Studies on preparation and photodynamic mechanism of chlorin P6-13,15-N-(cyclohexyl)cycloimide (Chlorin-H) and its antitumor effect for photodynamic therapy in vitro and in vivo” (Bioorg Med Chem, 2010):
Calls of active or inactive are those of the source. The calls are words filed in the database; no cut-off is given here.

Columns and labels:
A549 [1] = assay: Induction of apoptosis in human A549 cells assessed as late apoptotic cells at 4 uM after 24 hrs using annexin-V-PE/7-AAD double staining by flow cytometry; assay type: functional
A549 [2] = assay: Induction of apoptosis in human A549 cells assessed as viable cells at 4 uM after 24 hrs using annexin-V-PE/7-AAD double staining by flow cytometry; assay type: functional; details: A549, 24 h, read-out: Activity
A549 [3] = assay: Induction of apoptosis in human A549 cells assessed as apoptotic cells at 4 uM after 24 hrs using annexin-V-PE/7-AAD double staining by flow cytometry; assay type: functional
A549 [4] = assay: Induction of apoptosis in human A549 cells assessed as pre-necrotic cells at 4 uM after 24 hrs followed by irradiated with light dose 0.18 J/cm2 using annexin-V-PE/7-AAD double staining by flow cytometry; assay type: functional
A549 [5] = assay: Induction of apoptosis in human A549 cells assessed as late apoptotic cells at 4 uM after 24 hrs followed by irradiated with light dose 0.18 J/cm2 using annexin-V-PE/7-AAD double staining by flow cytometry; assay type: functional
A549 [6] = assay: Induction of apoptosis in human A549 cells assessed as viable cells at 4 uM after 24 hrs followed by irradiated with light dose 0.18 J/cm2 using annexin-V-PE/7-AAD double staining by flow cytometry; assay type: functional; details: A549, light or radiation study, read-out: Activity
A549 [7] = assay: Induction of apoptosis in human A549 cells assessed as apoptotic cells at 4 uM after 24 hrs followed by irradiated with light dose 0.18 J/cm2 using annexin-V-PE/7-AAD double staining by flow cytometry; assay type: functional
A549 [8] = assay: Induction of apoptosis in human A549 cells transfected with lentivirus TNFSF13-siRNA assessed as cell survival at 4 uM after 24 hrs followed by irradiated with light dose 0.18 J/cm2 by MTT assay; assay type: functional; details: A549, light or radiation study, read-out: Activity
A549 [9] = assay: Induction of apoptosis in human A549 cells transfected with lentivirus GFP assessed as cell survival at 4 uM after 24 hrs followed by irradiated with light dose 0.18 J/cm2 by MTT assay; assay type: functional; details: A549, light or radiation study, read-out: Activity
A549 [10] = assay: Induction of apoptosis in human A549 cells assessed as live mitochondrial membrane polarized cells at 4 uM after 24 hrs using JC-1 staining by flow cytometry; assay type: functional
A549 [11] = assay: Induction of apoptosis in human A549 cells assessed as late apoptotic mitochondrial membrane depolarized cells at 4 uM after 24 hrs using JC-1 staining by flow cytometry; assay type: functional
A549 [12] = assay: Induction of apoptosis in human A549 cells assessed as live mitochondrial membrane depolarized cells at 4 uM after 24 hrs using JC-1 staining by flow cytometry; assay type: functional
A549 [13] = assay: Induction of apoptosis in human A549 cells assessed as dying mitochondrial membrane depolarized cells at 4 uM after 24 hrs using JC-1 staining by flow cytometry; assay type: functional
A549 [14] = assay: Induction of apoptosis in human A549 cells assessed as live mitochondrial membrane polarized cells at 4 uM after 24 hrs followed by irradiated with light dose 0.18 J/cm2 using JC-1 staining by flow cytometry; assay type: functional
A549 [15] = assay: Induction of apoptosis in human A549 cells assessed as late apoptotic mitochondrial membrane depolarized cells at 4 uM after 24 hrs followed by irradiated with light dose 0.18 J/cm2 using JC-1 staining by flow cytometry; assay type: functional
A549 [16] = assay: Induction of apoptosis in human A549 cells assessed as live mitochondrial membrane depolarized cells at 4 uM after 24 hrs followed by irradiated with light dose 0.18 J/cm2 using JC-1 staining by flow cytometry; assay type: functional
A549 [17] = assay: Induction of apoptosis in human A549 cells assessed as dying mitochondrial membrane depolarized cells at 4 uM after 24 hrs followed by irradiated with light dose 0.18 J/cm2 using JC-1 staining by flow cytometry; assay type: functional
A549 [18] = assay: Induction of apoptosis in human A549 cells assessed as upregulation of Bcl2 mRNA expression at 4 uM after 24 hrs followed by irradiated with light dose 0.18 J/cm2 by RT-PCR analysis; assay type: functional, cell-based
A549 [19] = assay: Induction of apoptosis in human A549 cells assessed as upregulation of Smac mRNA expression at 4 uM after 24 hrs followed by irradiated with light dose 0.18 J/cm2 by RT-PCR analysis; assay type: functional, cell-based
A549 [20] = assay: Induction of apoptosis in human A549 cells assessed as upregulation of XIAP mRNA expression at 4 uM after 24 hrs followed by irradiated with light dose 0.18 J/cm2 by RT-PCR analysis; assay type: functional, cell-based
A549 [21] = assay: Induction of apoptosis in human A549 cells assessed as upregulation of TNFSF13 mRNA expression at 4 uM after 24 hrs followed by irradiated with light dose 0.18 J/cm2 by RT-PCR analysis; assay type: functional, cell-based
A549 [22] = assay: Induction of apoptosis in human A549 cells assessed as down regulation of […] mRNA expression at 4 uM after 24 hrs followed by irradiated with light dose 0.18 J/cm2 by RT-PCR analysis; assay type: functional, cell-based
A549 [23] = assay: Induction of apoptosis in human A549 cells assessed as down regulation of […] mRNA expression at 2 uM after 24 hrs followed by irradiated with light dose 0.18 J/cm2 by RT-PCR analysis; assay type: functional, cell-based
A549 [24] = assay: Induction of apoptosis in human A549 cells transfected with lentivirus Smac-siRNA assessed as cell survival at 4 uM after 24 hrs followed by irradiated with light dose 0.18 J/cm2 by MTT assay; assay type: functional; details: A549, light or radiation study, read-out: Activity
A549 [25] = assay: Induction of apoptosis in human A549 cells transfected with lentivirus p53-siRNA assessed as reduction of p53 mRNA level at 4 uM after 24 hrs followed by irradiated with light dose 0.18 J/cm2 by MTT assay; assay type: functional; parameters: scale not given: the % may be the effect or the level left
A549 [26] = assay: Induction of apoptosis in human A549 cells transfected with lentivirus Smac-siRNA assessed as reduction of Smac mRNA level at 4 uM after 24 hrs followed by irradiated with light dose 0.18 J/cm2 by MTT assay; assay type: functional; parameters: scale not given: the % may be the effect or the level left
A549 [27] = assay: Induction of apoptosis in human A549 cells transfected with lentivirus GFP assessed as reduction of GFP mRNA level at 4 uM after 24 hrs followed by irradiated with light dose 0.18 J/cm2 by MTT assay; assay type: functional; parameters: scale not given: the % may be the effect or the level left
A549 [28] = assay: Antitumor activity against human A549 cells xenografted in nude BALB/C mouse assessed as tumor shrinkage at 8 uM after 24 hrs followed by irradiated with light dose 78 J/cm2 measured after 10 days; assay type: functional, cell-based
A549 [29] = assay: Antitumor activity against human A549 cells xenografted in nude BALB/C mouse assessed as dark tumor at 8 uM after 24 hrs followed by irradiated with light dose 78 J/cm2 measured after 10 days; assay type: functional, cell-based
A549 [30] = assay: Antitumor activity against human A549 cells xenografted in nude BALB/C mouse assessed as hardened tumor at 8 uM after 24 hrs followed by irradiated with light dose 78 J/cm2 measured after 10 days; assay type: functional, cell-based
A549 [31] = assay: Antitumor activity against human A549 cells xenografted in nude BALB/C mouse assessed as dry tumor at 8 uM after 24 hrs followed by irradiated with light dose 78 J/cm2 measured after 10 days; assay type: functional, cell-based

Structure (SMILES): C=Cc1c(C)c2cc3nc(c4c5[nH]c(cc6nc(cc1[nH]2)C(C)=C6CC)c(C)c5C(=O)N(C1CCCCC1)C4=O)[C@@H](CCC(=O)O)[C@@H]3C
- Activity (A549 [1]): 3.6%
- viability at 4 µM (A549 [2]): 91%
- Activity (A549 [3]): 2.96%
- Activity (A549 [4]): 7.63%
- Activity (A549 [5]): 27.71%
- viability at 4 µM (A549 [6]): 9.32%
- Activity (A549 [7]): 55.33%
- viability at 4 µM (A549 [8]): 72.1%
- viability at 4 µM (A549 [9]): 44.9%
- Activity (A549 [10]): 0%
- Activity (A549 [11]): 88.88%
- Activity (A549 [12]): 0.01%
- Activity (A549 [13]): 9.35%
- Activity (A549 [14]): 0.01%
- Activity (A549 [15]): 91.08%
- Activity (A549 [16]): 0.01%
- Activity (A549 [17]): 8.28%
- Activity (A549 [18]): Active
- Activity (A549 [19]): Active
- Activity (A549 [20]): Active
- Activity (A549 [21]): Active
- Activity (A549 [22]): Active
- Activity (A549 [23]): Active
- viability at 4 µM (A549 [24]): 24.5%
- Activity (A549 [25]): 60%
- Activity (A549 [26]): 60%
- Activity (A549 [27]): 18.8%
- Activity (A549 [28]): Active
- Activity (A549 [29]): Active
- Activity (A549 [30]): Active
- Activity (A549 [31]): Active
